From patent publication US20230203485A1, “METHODS FOR MODULATING MHC-I EXPRESSION AND IMMUNOTHERAPY USES THEREOF” (Dana-Farber Cancer Institute, Inc., priority 2020, published 2023) come the findings set out here.

Holding throughout (type): cell-based, human
The test system of experiment [1] is HLA I surface expression on MCC cell lines. In words: Flow cytometry for HLA-I surface expression (anti-HLA-ABC, W6/32) in MCC lines at baseline and after interferon or MEK inhibitor treatment. The method, then: The overlaid black line plot indicates the percentage of tumor cells that stained positive for HLA-I by IHC of the corresponding original tumor (right y-axis).
Representative histogram plots show cells stained with anti-HLA class I or isotype antibodies. The experiment was performed in the MCPyV− line MCC-290 (left) and the MCPyV+ line MCC-301 (right).
(§1) Cells were dissociated with Versene and incubated with 5 μL Human TruStain FcX (Fc receptor blocking solution; Biolegend, Dedham, Mass.) per million cells in […] at room temperature for 10 min. Fluorochrome-conjugated antibodies or respective isotype controls were immediately added and incubated for another 30 min at 4° C. Cells were then washed once with PBS and resuspended in PBS containing 4% paraformaldehyde and analyzed on LSR Fortessa cytometers. Additional steps were described for individual experiments as below.
Background: A flow cytometer gives signals particle by particle.

For experiment [2], the system named is HLA-DR expression on MCC cell lines. Briefly: Flow cytometry assessment of HLA-DR expression in MCC lines at baseline and after IFN-γ. As to conditions: MCC-301 line. Here is the method: FIG. 1N is a graph showing flow cytometry assessment of HLA-DR expression in all 11 MCC lines, both at baseline (light pink) and after IFN-γ treatment (red).
as §1, with “below. For upregulation of HLA Class I experiment, 5×10^5 MCC cells were treated with increasing doses of IFNα2b, IFN3, IFNγ for 24 hours, or MEK inhibitors and DMSO for 72 hours before staining with W6/32 and Live/Dead as above.” for “below.”

The test system of a further experiment is surface HLA-I. In words: Interferon treatment of MCC lines, surface HLA-I by flow cytometry. The method, then:
Cells were dissociated with Versene and incubated with 5 μL Human TruStain FcX (Fc Receptor Blocking Solution; Biolegend #422302) per million cells in 100 μL at room temperature for 10 min. Fluorophore-conjugated antibodies or respective isotype controls were added and incubated for another 30 min at 4° C. Cells were then washed once with PBS and resuspended in PBS or 4% paraformaldehyde and analyzed on an LSR Fortessa cytometer. For HLA-I and HLA-II detection, the following antibodies were used: HLA-ABC (W6/32 clone) conjugated to PE (BioLegend #311406), APC (BioLegend #311410), or AF647 (Santa Cruz Biotechnology #sc32235 AF647), and HLA-DR-FITC (BioLegend #307604).

The subject of the next experiment is class I bound peptides. Briefly: HLA-I immunoprecipitation and LC-MS/MS immunopeptidome of cell lines +/- IFN-γ. Here is the method: Up to 40 million or 0.2 g of MCC cells were immunoprecipitated. Briefly, MCC cells were harvested and lysed in ice-cold lysis buffer containing […] (pH 8.0), 1 mM EDTA (pH 8.0), 0.1M sodium chloride, Triton X-100, 0.06M octyl β-d-glucopyranoside, 100 U/mL DNAse I, 1 mM phenylmethanesulfonyl fluoride (all from Sigma Aldrich), and protease inhibitor cocktail (Roche Diagnostics). Cell lysate was centrifuged at 12,700 rpm at 4° C. for 22 min. Lysate supernatant was coupled with Gammabind Plus sepharose beads (GE Healthcare) and incubated with 10 μg of HLA-I antibody (Clone W6/32, Santa Cruz Biotechnologies) at 4° C. under rotary agitation for 3 h. After incubation, the lysate-bead-antibody mixture was briefly centrifuged and the supernatant was discarded. Beads were washed with lysis buffer, consisting of wash buffer containing 40 mM Tris (pH 8.0), 1 mM EDTA (pH 8.0), 0.1M sodium chloride, 0.06M octyl β-d-glucopyranoside, and 20 mM Tris buffer, without protease inhibitors. […] Peptides of up to three immunoprecipitations were combined, acid eluted, and analyzed using LC/MS-MS. […] Peptides were eluted in a 6-30% gradient (EasyLC 1000 or 1200, Thermo Fisher Scientific) and analyzed on a QExactive Plus, Fusion Lumos, or Orbitrap Exploris 480 (Thermo Fisher Scientific). […] Fractions were analyzed on a Fusion Lumos or Orbitrap Exploris 480 equipped with a FAIMSpro interface. […]

For the substance “IFN-y: type II interferon, recombinant human, used to treat MCC cells”, the “HLA I surface expression, median fold increase by MFI” value in experiment [1] (IFN-y exposure, the 8 inducible of 11 MCC lines, pan-class I anti-HLA-ABC antibody, median) turned out to be 5.7 fold. Further, the “HLA I surface expression, range of fold increase by MFI” value in experiment [1] (IFN-y exposure, the 8 inducible of 11 MCC lines, range) is reported as 2.5-12.4 fold. Besides, in experiment [1] (three lines: MCC-336, -350, -358), the “HLA I surface expression response” value is on record as “not responsive”. Besides, in experiment [2], the HLA-DR expression result is on record as “inducible HLA-DR expression”.
On to “IFN-γ: interferon gamma used to stimulate MCC cell lines”, for which, in the experiment on surface HLA-I (8 lines), the “fold increase in MFI of HLA-I after IFN-γ exposure” value was no less than 2.5 fold, the “median fold increase in MFI of HLA-I after IFN-γ exposure” value came out at 5.7 fold and the “range of fold increase in MFI of HLA-I after IFN-γ exposure” value is on record as 2.5-12.4 fold. Further, in the experiment on surface HLA-I (three lines (MCC-336, -350, -358)), the “fold increase in MFI of HLA-I after IFN-γ exposure” value is given as no more than 1.15 fold. The “median fold increase in the abundance of class I bound peptides” value with class I bound peptides (across 7 cell lines, following IFN-γ stimulation) came out at 12 fold. The “frequencies of peptides mapping to each HLA allele” value in the experiment on class I bound peptides (cell lines with vs without IFN-γ treatment) is “increase in HLA-B-presented peptides”.
